Data as given in patent US5889048A, “Methods and compositions for treating defective cell functions” (priority 1994, dated 1999).

System: L-41 cell line
Experiment: cytostatic activity on reinoculated tumor culture of L-41 cell line (protein content, % cell growth inhibition)
Type: cell-based
Method: The […] activity of a pharmaceutical formulation of the invention was tested with using reinoculated tumor cell cultures.
In the studies a reinoculated leukocyte culture of L-41 strain was used.
The cell culture was incubated by the conventional method. The inoculate density was 1-10^5 cells in 1 ml of nutrient medium. […] On day 2 from the start of the study, a biological activity of the proposed formulation was estimated using 4-point scale. The assays for protein in cultures were performed by the Louri method modified by the Oyama and Eagle.
The cytostatic activity of the proposed formulation was evaluated as the % inhibition of cell culture growth by the suppression of protein production.
According to the existing standard techniques for screening the antitumor preparations, a pharmaceutical formulation is recognized to be efficient when its ED50 is less or equal to 100 μg/ml.
Comparison of biologic activity of the proposed pharmaceutical
reinoculated tumor culture of L-41 cell line

[1] = mercury dichloride alone 1.0 μg/ml
[2] = mercury dichloride alone 3.3 μg/ml
[3] = mercury dichloride alone 5.0 μg/ml
[4] = mercury dichloride alone 8.0 μg/ml

**Q.** For `[Cl][Hg][Cl]` [Mercury dichloride, mercury dichloride], which ED50 (L-41 culture, Table 1 data) is on record?
**A.** about 8 μg/ml

**Q.** And the “% of cell growth inhibition” value [1]?
**A.** 1.2%

**Q.** And the Protein content [1]?
**A.** 390.3 ± 2.6 µg/mL

**Q.** And the “% of cell growth inhibition” value [2]?
**A.** 5.1%

**Q.** What about the Protein content [2] of the same compound?
**A.** 279.0 ± 27.3 µg/mL

**Q.** What about the “% of cell growth inhibition” value [3] of the same compound?
**A.** 12.9%

**Q.** And the Protein content [3]?
**A.** 256.0 ± 5.2 µg/mL

**Q.** And the “% of cell growth inhibition” value [4]?
**A.** 47.6%

**Q.** What about the Protein content [4] of the same compound?
**A.** 154.0 ± 5.0 µg/mL

**Q.** What about the “ED50 (preliminary experiment)” value (preliminary experiment) of the same compound?
**A.** < 10 µg/mL
